Data taken from article PMC9501280, “Anti-Inflammatory Activity of Soluble Epoxide Hydrolase Inhibitors Based on Selenoureas Bearing an Adamantane Moiety” (International Journal of Molecular Sciences, 2022).
In brackets after ≈: the same amount, converted by molar mass. Read-outs that look alike come from different tables or passages of the source.

Columns and labels:
human recombinant sEH = target: T1, human recombinant sEH (Homo sapiens, UniProt P34913); assay: Human sEH inhibition, kinetic fluorescent assay; type: biochemical
T1 sequence (P34913 1-555): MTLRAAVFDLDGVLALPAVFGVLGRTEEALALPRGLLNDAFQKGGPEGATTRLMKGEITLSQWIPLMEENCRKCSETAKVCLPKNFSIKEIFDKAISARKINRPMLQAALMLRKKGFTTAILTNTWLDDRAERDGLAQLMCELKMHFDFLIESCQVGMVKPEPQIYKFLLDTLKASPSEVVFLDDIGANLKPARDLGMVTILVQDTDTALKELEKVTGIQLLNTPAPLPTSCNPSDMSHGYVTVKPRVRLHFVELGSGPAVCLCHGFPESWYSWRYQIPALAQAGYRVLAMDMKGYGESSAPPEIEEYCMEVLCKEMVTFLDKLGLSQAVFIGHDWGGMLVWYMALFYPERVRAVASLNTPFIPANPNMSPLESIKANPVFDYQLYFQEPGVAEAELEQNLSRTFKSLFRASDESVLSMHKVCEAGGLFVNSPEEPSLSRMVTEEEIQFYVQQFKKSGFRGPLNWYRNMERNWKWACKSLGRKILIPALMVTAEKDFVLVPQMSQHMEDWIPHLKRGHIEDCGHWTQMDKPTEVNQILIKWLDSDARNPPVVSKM

[1] = Ferric-reducing antioxidant power (FRAP); details: Trolox equivalents (Trolox = 1)
Excerpt: To confirm the SET mechanism, the reducing activity of the compounds was studied using tests CUPRAC (Cupric-Reducing Antioxidant Capacity) and FRAP (Ferric ion-Reducing Antioxidant Power). Unlike the DPPH and ABTS tests, these methods are based only on the ability of substances to act as electron donors. It should be noted that the CUPRAC test has several advantages: the manifestation of activity at a pH close to the physiological value and a favorable redox potential; the method is applicable to both lipophilic and hydrophilic antioxidants. The antioxidant potential of the studied derivatives 4a–g and 5a is estimated in equivalents of the water-soluble analog of vitamin E—Trolox (TEAC—Trolox Equivalent Antioxidant Capacity), the activity of which is taken as the unit ([…] = 1, […] = 1).
The sample solution (0.1 mL) was mixed with 0.1 mL phosphate buffer (0.2 M, pH 6.6) and 0.1 mL potassium ferricyanide (1%). For each test compound, different concentrations of EtOH were used (5, 10, 25, 50, 100, 200 and 250 μM). The resulting mixture was incubated at 50 °C for 20 min. After the incubation period, 0.1 mL trichloroacetic acid (10%), 0.5 mL deionized water and 0.1 mL ferric chloride (0.1%) were added to the mixture. The sample absorbance was read at 700 nm with a 96-cell microplate spectrophotometer. The reduction of Fe (III) to Fe (II) could be expressed as % inhibition or the equivalent of a standard compound (e.g., Trolox).

[2] = Solubility in sodium phosphate buffer; type: physicochemical; details: aqueous buffer, kinetic from dmso stock; sodium phosphate buffer (pH 7.4, 0.1 M) containing 1% DMSO
Procedure: To our knowledge, no systematic studies of selenoureas as sEH inhibitors have been performed previously. The potency of the compounds was determined against the human recombinant sEH and their solubility assessed in phosphate-buffered saline (Table 1).

[3] = Antiradical activity in nonenzymatic quinoid oxidation of adrenaline; details: adrenaline autoxidation without compound = 100%; initial concentration 25 µM
Procedure: The antiradical activity of compounds 4a–g and 5a in the reaction of nonenzymatic quinoid oxidation of adrenaline (1-(3,4-dioxyphenyl)-2-methylaminoethanol) in alkaline bicarbonate buffer was evaluated. As a result of this reaction, not only the superoxide anion radical is formed, but also radicals of carbonate–bicarbonate anions, which makes it possible to reveal the total antiradical activity of potential antioxidants. […] Thus, we confirmed the antiradical activity of compounds 4a–g and 5a with respect to O2^–• generated in enzymatic and nonenzymatic model systems.
SOD-protective activity of the biopreparation was the ability to utilize the superoxide anion radical O2^–•, as determined by the method of Sirota. A cytosolic fraction of the Russian sturgeon liver homogenate was used as the source of SOD. First, the sturgeon liver was washed with cold 0.2 M Tris (tris (hydroxymethyl) aminomethane) buffer (pH 7.8) to remove any traces of blood. All of the procedures were performed at a temperature of 0–4 °C. Next, a homogenate was obtained using a Potter homogenizer (Thomas Scientific, Swedesboro, NJ, USA) in 0.2 M Tris buffer at a ratio of 1:10. The homogenate was then centrifuged for 10 min at 1000× g to remove partially destroyed cells and nuclei. The resulting supernatant contained the enzymes of the cytosolic fraction of the liver homogenate, including the SOD. Here, 10 µL of the biopreparation was added to a cuvette with 200 µL of bicarbonate buffer (pH 10.65), 10 µL of the tested compound (initial concentrations of these compounds 25 µM) and 10 µL of 0.1% adrenaline solution and was thoroughly and quickly mixed. The rate of adrenaline oxidation without and in the presence of the biopreparation was evaluated by the change in optical density, measured at 347 nm for 3 min. The decrease in the rate of the process in the presence of the biopreparation was used to characterize the SOD-protective activity.

[4] = Superoxide radical anion formation by xanthine oxidase (NBT assay); type: biochemical; details: sample solution 5 mM in DMSO
Procedure: The superoxide anion radical scavenging activity of derivatives 4a–g and 5a was evaluated by the ability to inhibit the reduction of nitro blue tetrazolium (NBT) to blue formazan by trapping O2^•− generated by xanthine oxidase in the oxidation of hypoxanthine to uric acid.
EDTA, xanthine, bovine serum albumin, nitro blue tetrazolium and xanthine oxidase (25 MU) were purchased from Sigma Aldrich (Burlington, MA, USA). The superoxide anions were generated enzymatically by the xanthine oxidase system. The reaction mixture consisted of 2.70 mL of 40 mM sodium carbonate buffer containing 0.1 mM EDTA (pH 10.0), 0.06 mL of 10 mM xanthine, 0.03 mL of 0.5% bovine serum albumin, 0.03 mL of 2.5 mM nitro blue tetrazolium and 0.06 mL of the sample solution in DMSO at the concentration of 5 mM. An amount of 0.12 mL of xanthine oxidase (0.04 units) was added to the mixture at 25 °C, and the absorbance at 560 nm (by formation of blue formazan) was measured by a microplate spectrophotometer for 60 s. A control experiment was carried out by replacing the sample solution with the same amount of DMSO.
Inhibition I (%) = [(1 − Ai/A0) × 100%], where Ai is the absorbance in the presence of the testing compound, and A0 is the absorbance of the blank solution. All experiments were performed three times.

[5] = kinetic fluorescent assay, means of three separate experiments, read-out: Human sEH IC50

SMILES	IC50 (human recombinant sEH; [5]) [nM]	TEACFRAP [1]	melting point [°C]	solubility [2] [µM]	% Inhibition, Antiradical Activity (O2–•) [3] [%]	% Inhibition NBT [4] [%]	increase in the inhibitory activity (human recombinant sEH; 4b versus 4a, one methylene group between adamantyl and selenourea) [fold]	IC50 (human recombinant sEH; human sEH, read-out: IC50 (sEH)) [nM]
[Se]=C(Nc1ccccc1)NC12CC3CC(CC(C3)C1)C2 [4a, 1-(Adamantan-1-yl)-3-phenylselenourea]	436	0.93 ± 0.06	202 to 203	55 ± 10 (≈ 18.3 µg/mL)	35.49 ± 0.03	29.17 ± 0.01		
[Se]=C(NCC12CC3CC(CC(C3)C1)C2)Nc1ccccc1 [4b, 1-[(Adamantan-1-yl)methyl]-3-phenylselenourea]	131	1.14 ± 0.03	197 to 198	110 ± 20 (≈ 38.2 µg/mL)	19.37 ± 0.88	35.20 ± 1.46	3.3	
CC(NC(=[Se])Nc1ccccc1)C12CC3CC(CC(C3)C1)C2 (stereo not shown) [4c, 1-[1-(Adamantan-1-yl)ethyl]-3-phenylselenourea]	1210	1.81 ± 0.08		50 ± 5 (≈ 18.1 µg/mL)	21.64 ± 2.29	6.52 ± 0.50		1200
[Se]=C(NCCC12CC3CC(CC(C3)C1)C2)Nc1ccccc1 [4d, 1-[2-(Adamantan-1-yl)ethyl]-3-phenylselenourea]	49.1	1.32 ± 0.01	141 to 142	70 ± 10 (≈ 25.3 µg/mL)	9.97 ± 0.41	6.85 ± 1.18		
[Se]=C(Nc1ccccc1)Nc1ccc(C23CC4CC(CC(C4)C2)C3)cc1 [4e, 1-[4-(Adamantan-1-yl)phenyl]-3-phenylselenourea]	55.4	1.13 ± 0.14	163 to 164	30 ± 10 (≈ 12.3 µg/mL)	23.68 ± 0.03	4.75 ± 0.50		
CC12CC3CC(C)(C1)CC(NC(=[Se])Nc1ccccc1)(C3)C2 [4f, 1-(3,5-Dimethyladamantan-1-yl)-3-phenylselenourea]	256	0.57 ± 0.04	142 to 143	100 ± 10 (≈ 36.1 µg/mL)	20.95 ± 1.20	10.93 ± 1.05		
[Se]=C(Nc1ccccc1)NC1C2CC3CC(C2)CC1C3 (stereo not shown) [4g, 1-(Adamantan-2-yl)-3-phenylselenourea]	104	1.39 ± 0.03	187 to 188	80 ± 20 (≈ 26.7 µg/mL)	24.66 ± 1.33	14.26 ± 1.48		
[Se]=C(NCc1ccccc1)NC12CC3CC(CC(C3)C1)C2 [5a, 1-(Adamantan-1-yl)-3-benzylselenourea]	211	1.19 ± 0.04	157 to 158	125 ± 20 (≈ 43.4 µg/mL)	43.79 ± 0.02	56.52 ± 0.05		
